In patent publication US20050176746A1, “Use of compounds that are effective as selective opiate receptor modulators” (priority 2002, published 2005):

How the values were obtained:
healthy subjects = experiment: Satiety test (nutrient drink; maximum volume ingested and postprandial symptoms), Phase I study, 7-day treatment; format: in vivo, human
Source text: (§1) A a single center, randomized, double-blind, placebo controlled, parallel group Phase I study has been performed. The trial evaluates the effects of a 7-day treatment with 2 different doses of the peripherally selective opiate receptor modulator asimadoline (N-methyl-N-[(1S)-1-phenyl-2-((3S)-3-hydroxypyrrolidin-1-yl)ethyl]-2,2-diphenylacetamide hydrochloride, EMD 61 753) on gastrointestinal and colonic transit and sensorimotor functions in healthy subjects in comparison to placebo.
All subjects have undergone a satiety test prior to and under medication, a scintigraphic gastric and colonic transit test, and, after overnight bowel preparation, a barostat test assessing colonic compliance and colonic sensation prior to and under medication, and fasting colonic tone and colonic response to a standardized meal under medication.
Specific aims of this study have been the comparison of the effects of 7 day treatment with placebo and three doses of asimadoline as described above on: • satiety after ingestion of a nutrient drink • colonic aggregate sensation score in response to distension in healthy subjects • thresholds for colonic sensation of gas and pain in response to distension in healthy subjects • fasting colonic compliance and tone • postprandial tonic response to standard meal ingestion
(§2) A further aim of the study was to compare the gastrointestinal and colonic transit profiles during the 7-day treatment. The studies on lower dosage (0.15 mg/kg and 0.5 mg/kg versus placebo) were performed separately as Part A and the studies on higher dosage (1.5 mg/kg versus placebo) were performed separately as Part B of the studies (see FIGS. 1 to 4).
The primary endpoint in the satiety test is difference to baseline in the aggregate satiety score 30 min after full satiety.
The analysis of primary motility endpoints (gastric residual percent at 2 hrs, colonic filling (CF) percent at 6 hrs. and colonic geometric center at 24 hrs)and the maximum satiety volume (at day 5) is based on one-way analysis of variance or analysis of covariance methods. The proportions (GE at 2 hrs and CF at 6 hrs)may warrant transformation (e.g., sin^−1{square root}) prior to analysis to stabilize variation across treatment groups. Analysis of the satiety volumes incorporates the baseline value as a covariate in addition to BMI; or alternatively, the relative changes (log [day 5 volume/baseline volume]) are analyzed with BMI as a covariate.

[1] = test system: colon of healthy subjects; experiment: Barostat test (intubated colonic procedure: fasting colonic volume, sensation and pain to distension), Phase I study, 7-day treatment; format: in vivo, human; set-up: key to sensation to distension (VAS score) / pain to distension (VAS score): 100 mm visual analog scale
Source text: as §1, §2
All subjects are presented to the General Clinical Research Center at Charlton 7, General Clinical Research Center, on visit 3 after overnight bowel preparation with the oral colonic lavage solution (2-5 L of polyethylene glycol 3350 and electrolyte solution, NuLytely™, Abbott Laboratories, Chicago. IL), and a 12-hour fast.
Flexible colonoscopy is performed to evaluate the left side of the colon and to place a teflon guidewire into the proximal colon under fluoroscopic control. The endoscope is withdrawn.
A barostat catheter is inserted into the colon along the guidewire so that the barostat balloon is located in the upper sigmoid or descending colon. The catheter is connected to a barostat machine using an infinitely compliant 10-cm long balloon with a maximum volume of 600 cc (Hefty Baggies, Mobil Chemical Co., Pittsford, N.Y.) linked to an electronic barostat (Mayo rigid barostat, Mayo Foundation Engineering Department, Rochester, Minn.) which has a rigid piston. The manometric portion comprises six waterperfused (0.4 ml/min) pneumohydraulic sensors, three in the descending colon (sensor numbers 1-3) and three in the sigmoid colon (sensor numbers 4-6). The manometric sensors are 5 cm apart, while the first and second sensors are 5 cm oral and caudal to the balloon respectively. To decrease the effects of abdominal viscera on the balloon volume, the studies are performed with the subjects in a semi-prone position during the entire duration of the study.
Previous studies have shown that an initial “conditioning” distension to 20 mmHg renders subsequent assessments of compliance and perception more reproducible [15. 47. 48]. Following the conditioning distension, colonic compliance and sensory thresholds are measured by ramp inflation with increments of 4 mmHg, o steps at 30 second intervals from 0 to 44 mmHg; thresholds for first sensation and sensation of pain are thus determined using the ascending method of limits.
Immediately prior to assessment of colonic sensation, four 100 mm visual analog scales (VAS) scales using the anchor points “tired-energetic”, “peaceful-tense” and “worried-relaxed” and “active-drowsy” are used to determine the level of arousal, anxiety or stress being experienced by the subject. […] Subsequently, randomized-order phasic distensions at 8, 16, 24, and 32 mm Hg above operating pressure are applied to measure the sensations of gas or pain.
For rating sensory perception, the participants are asked to mark two separate VAS for abdominal pain and feeling of gas at a standardized time, 20 seconds after the distension had commenced. The VAS are anchored at the ends by the descriptions “unnoticeable” and “unbearable”. During assessment of sensation, verbal interaction between the subject and investigator is minimized.
Colonic sensation is assessed before and 1 h after drug administration during the measurement of colonic compliance. This is equivalent to finding the threshold pressures or the initial perception and pain perception during sequential pressure increments using the ascending method of limits.
The participant is allowed to rest for 15 minutes. […]

CN(C(=O)C(c1ccccc1)c1ccccc1)[C@H](CN1CC[C@H](O)C1)c1ccccc1.Cl [asimadoline, N-methyl-N-[(1S)-1-phenyl-2-((3S)-3-hydroxypyrrolidin-1-yl)ethyl]-2,2-diphenylacetamide hydrochloride]
maximum ingested volume versus placebo (in words) (healthy subjects; 0.15 mg/kg): increase the maximum ingested volume slightly versus placebo | aggregate postprandial symptoms (VAS score) (healthy subjects; 0.15 mg/kg, Part A (placebo 180)): 187 | maximum volume ingested (satiety test) (healthy subjects; 0.15 mg/kg, study Part A (placebo 1280 ml)): 1425 mL | maximum ingested volume versus placebo (in words) (healthy subjects; 0.5 mg/kg): increase the maximum ingested volume significantly versus placebo | aggregate postprandial symptoms (VAS score) (healthy subjects; 0.5 mg/kg, Part A (placebo 180)): 170 | maximum volume ingested (satiety test) (healthy subjects; 0.5 mg/kg, study Part A (placebo 1280 ml)): 1470 mL | postprandial symptoms with higher ingested volume (in words) (healthy subjects; 1.5 mg/kg): symptoms increased with increased volume ingested | aggregate postprandial symptoms (VAS score) (healthy subjects; 1.5 mg/kg, Part B (placebo 162)): 192 | maximum volume ingested (satiety test) (healthy subjects; 1.5 mg/kg, study Part B (placebo 1300 ml)): 1390 mL | postprandial symptoms with higher ingested volume (in words) (healthy subjects; dosis in the range of 0.5 mg/kg): not associated with an increase in symptoms | maximum ingested volume, dose dependency (in words) (healthy subjects; higher concentration (1.5 mg/kg)): ceiling effect established | maximum ingested volume, dose dependency (in words) (healthy subjects; lower end of the dosis range (0.15 mg/kg)): dose response effect established | fasting volume of the colon at 0 mm pressure ([1]; 0.15 mg/kg, Part A (placebo 1 ml)): 8 mL | fasting volume versus placebo (in words) ([1]; 0.5 mg/kg): significantly higher | fasting volume of the colon at 0 mm pressure ([1]; 0.5 mg/kg, Part A (placebo 1 ml)): 21 mL | perception of distension (in words) ([1]; 0.5 mg/kg, low pressure (8 mm Hg), effect decreases by increasing pressure): significantly reduced | fasting volume of the colon at 0 mm pressure ([1]; 1.5 mg/kg, Part B (placebo 6 ml)): 24 mL | pain to distension (VAS score) ([1]; 8 mm Hg, 0.15 mg/kg, Part A (placebo 22)): 25 | sensation to distension (VAS score) ([1]; 8 mm Hg, 0.15 mg/kg, Part A (placebo 37)): 38 | pain to distension (VAS score) ([1]; 8 mm Hg, 0.5 mg/kg, Part A (placebo 22)): 18 | sensation to distension (VAS score) ([1]; 8 mm Hg, 0.5 mg/kg, Part A (placebo 37)): 26 | pain to distension (VAS score) ([1]; 8 mm Hg, 1.5 mg/kg, Part B (placebo 14)): 30 | sensation to distension (VAS score) ([1]; 8 mm Hg, 1.5 mg/kg, Part B (placebo 20)): 31 | pain to distension (VAS score) ([1]; 16 mm Hg, 0.15 mg/kg, Part A (placebo 33)): 28 | sensation to distension (VAS score) ([1]; 16 mm Hg, 0.15 mg/kg, Part A (placebo 43)): 37 | pain to distension (VAS score) ([1]; 16 mm Hg, 0.5 mg/kg, Part A (placebo 33)): 28 | sensation to distension (VAS score) ([1]; 16 mm Hg, 0.5 mg/kg, Part A (placebo 43)): 37 | pain to distension (VAS score) ([1]; 16 mm Hg, 1.5 mg/kg, Part B (placebo 21)): 37 | sensation to distension (VAS score) ([1]; 16 mm Hg, 1.5 mg/kg, Part B (placebo 23)): 38 | pain to distension (VAS score) ([1]; 24 mm Hg, 0.15 mg/kg, Part A (placebo 38)): 30 | sensation to distension (VAS score) ([1]; 24 mm Hg, 0.15 mg/kg, Part A (placebo 43)): 45 | pain to distension (VAS score) ([1]; 24 mm Hg, 0.5 mg/kg, Part A (placebo 38)): 32 | sensation to distension (VAS score) ([1]; 24 mm Hg, 0.5 mg/kg, Part A (placebo 43)): 41 | pain to distension (VAS score) ([1]; 24 mm Hg, 1.5 mg/kg, Part B (placebo 30)): 40 | sensation to distension (VAS score) ([1]; 24 mm Hg, 1.5 mg/kg, Part B (placebo 42)): 41 | pain to distension (VAS score) ([1]; 32 mm Hg, 0.15 mg/kg, Part A (placebo 48)): 42 | sensation to distension (VAS score) ([1]; 32 mm Hg, 0.15 mg/kg, Part A (placebo 54)): 53 | pain to distension (VAS score) ([1]; 32 mm Hg, 0.5 mg/kg, Part A (placebo 48)): 38 | sensation to distension (VAS score) ([1]; 32 mm Hg, 0.5 mg/kg, Part A (placebo 54)): 47 | pain to distension (VAS score) ([1]; 32 mm Hg, 1.5 mg/kg, Part B (placebo 43)): 47 | sensation to distension (VAS score) ([1]; 32 mm Hg, 1.5 mg/kg, Part B (placebo 51)): 43 | perception of pain (in words) ([1]; Barostat test, no dose stated): no significant reduction in the perception of pain could be observed | scores for pain and sensation versus placebo (in words) ([1]; higher doses (1.5 mg/kg)): significantly higher scores for pain and sensation were observed versus placebo
